Patent US20260053782A1, “TREATMENT REGIMENS FOR PARKINSON'S DISEASE” (BIAL - PORTELA & CA, S.A., priority 2022, published 2026)

Experiments:
[1] = cited from earlier work
[2] = tested on: patients suffering from early idiopathic Parkinson's disease; details: addition of entacapone vs levodopa-only therapy; levodopa-naïve patients; cited from earlier work
[3] = Levodopa pharmacokinetics over 12 hours after 2 weeks of each LD/CD regimen with or without opicapone 50 mg (Phase II open-label trial); details: human, in vivo
Protocol: The invention was discovered through a Phase IL, randomized, open-label trial evaluating the effect of opicapone (50 mg once-daily) on L-DOPA pharmacokinetics in Parkinson's disease patients with end-of-dose motor fluctuations taking different levodopa/carbidopa (LD/CD) sparing regimens (EudraCT number: 2020-003139-12).
Following screening, all subjects received an LD/CD dose and regimen of 100/25 mg QD5 (giving a total daily dose of 500/125 mg) fixed every 3 hours (from 8:00 to 20:00) for 14±2 days. This is the reference regimen. […]
The pharmacokinetic parameters assessed for each of the regimens included maximum observed plasma concentration (Cmax), time to achieve peak plasma levels (tmax), minimum observed plasma concentration (Cmin), plasma elimination half-life (t1/2), area under the curve (AUC) and fluctuation index (FI, as an expression of peak-to-trough fluctuation, Cmax and Cmin relative to average concentration Cavg).

[4] = tested on: Parkinson's disease patients with end-of-dose motor fluctuations; experiment: 12-hour patient ON/OFF monitoring registered by investigators on pharmacokinetics days; format: in vivo, human; details: addition of opicapone; overall summary
From the text: Subjects were aged ≥30 years with a clinical diagnosis of idiopathic Parkinson's disease according to the United Kingdom Parkinson's Disease Society Brain Bank Clinical Diagnostic Criteria with disease severity stage 1-3 (according to modified Hoehn & Yahr staging) at ON and with end-of-dose motor fluctuations and signs of “wearing off”. Subjects were receiving treatment with levodopa/DDCI for at least 1 year with clear clinical improvement.
Clinical and safety/tolerability outcomes were also assessed as exploratory secondary outcomes. Clinical outcomes included ON and OFF-time assessed using patient-rated tools. The timing of ON and OFF state was registered (in real time) by the investigators during the matching 12-hour pharmacokinetic evaluation, as such applied on the pharmacokinetics days only), and patients also completed 24-hour Hauser ON/OFF diary charts (in 30 minute blocks) during the three days before each pharmacokinetic visit. […] In addition, the patient global impression of change (PGI-C) of opicapone 50 mg was evaluated at the end of the LD/CD 400/100 mg plus opicapone treatment, compared to before the start of the opicapone treatment. […]
All study assessments were evaluated for each LD/CD 400/100 mg plus 50 mg opicapone treatment regimen, compared to the LD/CD 500/125 mg without opicapone regimen.

Structure (SMILES): N[C@@H](Cc1ccc(O)c(O)c1)C(=O)O [levodopa, L-3,4-dihydroxyphenylalanine]
- half-life of oral levodopa [1]: 1 to 1.5 h

Structure (SMILES): CCN(CC)C(=O)/C(C#N)=C/c1cc(O)c(O)c([N+](=O)[O-])c1 [entacapone]
- frequency of dyskinesia [2]: increased frequency of dyskinesia

Structure (SMILES): Cc1c(Cl)c(C)[n+]([O-])c(Cl)c1-c1noc(-c2cc(O)c(O)c([N+](=O)[O-])c2)n1 [opicapone]
- difference in levodopa tmax [3]: no impact
- increase in levodopa t1/2 [3]: at least doubled
- OFF time [4]: reduced OFF time
- ON time [4]: increased ON time
